According to US20140155415A1, “BENZ[…] BENZODIOXINE COMPOUNDS THAT INTERACT WITH G[…] FOR THE TREATMENT OF DIABETES” (priority 2011, published 2014):

Legend:
[1] = target: T1, GK-GKRP (interaction between glucokinase and glucokinase regulatory protein) (Homo sapiens, UniProt Q14397); assay: GK-GKRP Binding Assay (Binding), AlphaScreen; conditions: avi-tagged GKRP, GK-fluorescein, AlphaScreen beads, 1 μM sorbitol-6-phosphate; read-out: GK-GKRP IC50 (Binding)
T1 construct: made in house; host or cells: GKRP: baculovirus system
T1 sequence (Q14397 1-625): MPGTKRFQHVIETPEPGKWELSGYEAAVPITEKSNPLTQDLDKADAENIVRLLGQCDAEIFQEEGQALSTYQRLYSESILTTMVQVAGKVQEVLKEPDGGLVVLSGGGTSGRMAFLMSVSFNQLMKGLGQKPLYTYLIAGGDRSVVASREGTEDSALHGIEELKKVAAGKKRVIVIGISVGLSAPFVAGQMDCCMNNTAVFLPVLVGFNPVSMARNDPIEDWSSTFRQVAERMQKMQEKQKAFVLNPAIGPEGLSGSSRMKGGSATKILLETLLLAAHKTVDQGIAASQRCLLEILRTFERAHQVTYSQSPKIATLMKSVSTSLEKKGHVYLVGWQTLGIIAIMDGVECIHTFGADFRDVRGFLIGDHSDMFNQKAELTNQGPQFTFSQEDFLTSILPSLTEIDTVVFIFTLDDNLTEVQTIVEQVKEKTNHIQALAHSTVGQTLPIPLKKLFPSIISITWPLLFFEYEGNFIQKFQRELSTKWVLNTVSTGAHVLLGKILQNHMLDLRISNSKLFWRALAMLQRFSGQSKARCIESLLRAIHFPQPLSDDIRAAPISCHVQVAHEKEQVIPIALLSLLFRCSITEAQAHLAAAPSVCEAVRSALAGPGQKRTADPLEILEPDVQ
How it was run: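 Biotinylated, C-terminally avi-tagged human GKRP was preincubated 20 min at room temperature with compound, then fluorescein-labelled human hepatic GK was added (6 nM in the added buffer). The mix was incubated 2 h at room temperature in the dark before AlphaScreen reading. Buffer was 20 mM Tris pH 7.5, 0.05% BSA, 1 mM DTT, 1 μM sorbitol-6-phosphate.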

[2] = target: T2, GK-GKRP (glucokinase / glucokinase regulatory protein) (Homo sapiens, UniProt Q14397); assay: GKRP LC MS/MS Biochemical Assay (LCMS/MS); conditions: formation of 13C-glucose-6-phosphate from 13C-glucose by LC MS/MS, human His-hepatic GK, fructose-6-phosphate
T2 sequence (Q14397 1-625): T1 sequence (Q14397 1-625)
How it was run: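 Human His-tagged hepatic GK (30 nM working stock, 5×) with GKRP in 50 mM Tris pH 7.5, 4 mM MgCl2, 6% DMSO; compound preincubated 30 min, then GK added for 30 min at room temperature. Acetonitrile-stopped; 13C-glucose-6-phosphate formed from 13C-glucose quantified by LC MS/MS.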

Compound	IC50 [1] [µM]	EC50 [2] [µM]
COc1cccnc1C(NS(=O)(=O)c1ccc2c(c1)OCCCO2)c1cc2cccnc2s1 (racemic) [Example 49, N-((3-methoxy-2-pyridinyl)(thieno[2,3-b]pyridin-2-yl)methyl)-3,4-dihydro-2H-1,5-benzodioxepine-7-sulfonamide]	0.093	0.15
C[C@@](O)(c1ccnc(-c2cccc3cc([C@@H](NS(=O)(=O)c4ccc5c(c4)OCCCO5)c4ccccc4)sc23)c1)C(F)(F)F (single isomer, unassigned) [Example 70 Peak #3]	0.33	0.17
O=S(=O)(N[C@H](c1cc2ccccc2o1)c1ccccc1Br)c1ccc2c(c1)OCCCO2 (single isomer, unassigned) [Example 22 Peak #1]	4.5	> 20
O=S(=O)(NC(c1cc2ccccc2o1)c1ccccc1F)c1ccc2c(c1)OCCCO2 (racemic) [Example 23, N-(1-benzofuran-2-yl(2-fluorophenyl)methyl)-3,4-dihydro-2H-1,5-benzodioxepine-7-sulfonamide]	0.49	0.45
C#Cc1ccccc1C(NS(=O)(=O)c1ccc2c(c1)OCCCO2)c1cc2ccccc2s1 (racemic) [Example 39, N-(1-benzothiophen-2-yl(2-ethynylphenyl)methyl)-3,4-dihydro-2H-1,5-benzodioxepine-7-sulfonamide]	0.017	0.037
O=S(=O)(N[C@H](c1cc2ccccc2o1)c1ccccc1I)c1ccc2c(c1)OCCCO2 (single isomer, unassigned) [Example 21 Peak #1]	> 33	> 20
Cc1ccccc1[C@@H](NS(=O)(=O)c1ccc2c(c1)OCCCO2)c1cc2ccccc2s1 (single isomer, unassigned) [Example 36 Peak #2]	0.24	0.062
O=S(=O)(NC(c1ccccn1)c1cc2ccccc2o1)c1ccc2c(c1)OCCCO2 (racemic) [Example 25, N-(1-benzofuran-2-yl(2-pyridinyl)methyl)-3,4-dihydro-2H-1,5-benzo dioxepine-7-sulfonamide]	1.4	0.27
C=Cc1ccccc1C(NS(=O)(=O)c1ccc2c(c1)OCCCO2)c1cc2ccccc2o1 (racemic) [Example 7, N-(1-benzofuran-2-yl(2-ethenylphenyl)methyl)-3,4-dihydro-2H-1,5-benzodioxepine-7-sulfonamide]	0.098	0.045
O=S(=O)(NC(c1nc2cccnc2s1)c1ccccc1Cl)c1ccc2c(c1)OCCCO2 (racemic) [Example 68, N-((2-chlorophenyl)([1,3]thiazolo[5,4-b]pyridin-2-yl)methyl)-3,4-dihydro-2H-1,5-benzodioxepine-7-sulfonamide]	0.054	0.063
COc1ccccc1C(NS(=O)(=O)c1ccc2c(c1)OCCCO2)c1cc2cccnc2s1 (racemic) [Example 47, N-((2-methoxyphenyl)(thieno[2,3-b]pyridin-2-yl)methyl)-3,4-dihydro-2H-1,5-benzodioxepine-7-sulfonamide]	0.027	0.059
CSc1ccccc1C(NS(=O)(=O)c1ccc2c(c1)OCCCO2)c1nc2cccnc2s1 (racemic) [Example 65, N-((2-(methylsulfanyl)phenyl)([1,3]thiazolo[5,4-b]pyridin-2-yl)methyl)-3,4-dihydro-2H-1,5-benzodioxepine-7-sulfonamide]	0.009	0.037
O=S(=O)(N[C@@H](c1nc2cccnc2s1)c1ccccc1Cl)c1ccc2c(c1)OCCCO2 (single isomer, unassigned) [Example 68 Peak #2]	0.02	0.029
C[C@](O)(c1ccnc(-c2cccc3cc([C@@H](NS(=O)(=O)c4ccc5c(c4)OCCCO5)c4ccccc4)sc23)c1)C(F)(F)F (single isomer, unassigned) [Example 70 Peak #4]	0.11	0.074
CSc1ccccc1[C@H](NS(=O)(=O)c1ccc2c(c1)OCCCO2)c1cc2ccncc2s1 (single isomer, unassigned) [Example 64 Peak #1]	0.43	0.18
CCc1ccccc1C(NS(=O)(=O)c1ccc2c(c1)OCCCO2)c1cc2ccccc2o1 (racemic) [Example 6, N-(1-benzofuran-2-yl(2-ethylphenyl)methyl)-3,4-dihydro-2H-1,5-benzodioxepine-7-sulfonamide]	0.22	0.067

More lines, in order of falling IC50 [1], values ahead:

IC50 [1] [µM]	EC50 [2] [µM]	Compound
4.1	3.8	Cc1cccc(C)c1C(NS(=O)(=O)c1ccc2c(c1)OCCCO2)c1cc2ccccc2o1 (racemic) [Example 10, N-(1-benzofuran-2-yl(2,6-dimethylphenyl)methyl)-3,4-dihydro-2H-1,5-benzodioxepine-7-sulfonamide]
1.7	2	Cc1ccccc1C(NS(=O)(=O)c1ccc2c(c1)OCCCO2)c1oc2ccccc2c1C (racemic) [Example 45, N-((3-methyl-1-benzofuran-2-yl)(2-methylphenyl)methyl)-3,4-dihydro-2H-1,5-benzodioxepine-7-sulfonamide]
1.4	0.46	Cc1ccc(F)cc1C(NS(=O)(=O)c1ccc2c(c1)OCCCO2)c1cc2ccccc2o1 (racemic) [Example 4, N-(1-benzofuran-2-yl(5-fluoro-2-methylphenyl)methyl)-3,4-dihydro-2H-1,5-benzodioxepine-7-sulfonamide]
0.97	0.34	O=S(=O)(NC(c1cc2ccccc2o1)c1ccccc1OC(F)(F)F)c1ccc2c(c1)OCCCO2 (racemic) [Example 18, N-(1-benzofuran-2-yl(2-(trifluoromethoxy)phenyl)methyl)-3,4-dihydro-2H-1,5-benzodioxepine-7-sulfonamide]
0.63	0.3	O=S(=O)(NC(c1ccccc1)c1nc2ccccc2s1)c1ccc2c(c1)OCCCO2 (racemic) [Example 59, N-(1,3-benzothiazol-2-yl(phenyl)methyl)-3,4-dihydro-2H-1,5-benzodioxepine-7-sulfonamide]
0.41	0.48	COc1cnccc1C(NS(=O)(=O)c1ccc2c(c1)OCCCO2)c1cc2cccnc2s1 (racemic) [Example 50, N-((3-methoxy-4-pyridinyl)(thieno[2,3-b]pyridin-2-yl)methyl)-3,4-dihydro-2H-1,5-benzodioxepine-7-sulfonamide]
0.36	0.22	O=S(=O)(NC(c1ccccc1)c1cc2cccnc2s1)c1ccc2c(c1)OCCCO2 (racemic) [Example 46, N-(phenyl(thieno[2,3-b]pyridin-2-yl)methyl)-3,4-dihydro-2H-1,5-benzodioxepine-7-sulfonamide]
0.228	0.076	O=S(=O)(NC(c1cc2ccccc2o1)c1ccccc1I)c1ccc2c(c1)OCCCO2 (racemic) [Example 21, N-(1-benzofuran-2-yl(2-iodophenyl)methyl)-3,4-dihydro-2H-1,5-benzodioxepine-7-sulfonamide]
0.22	0.07	O=S(=O)(NC(c1cc2ccccc2o1)c1ccccc1Cl)c1ccc2c(c1)OCCCO2 (racemic) [Example 20, N-(1-benzofuran-2-yl(2-chlorophenyl)methyl)-3,4-dihydro-2H-1,5-benzodioxepine-7-sulfonamide]
0.046	0.023	CSc1ccccc1[C@@H](NS(=O)(=O)c1ccc2c(c1)OCCCO2)c1cc2ccccc2o1 (single isomer, unassigned) [Example 19 Peak #2]
0.006	0.022	C[C@](O)(c1ccnc(-c2cccc3cc([C@H](NS(=O)(=O)c4ccc5c(c4)OCCCO5)c4ccccc4)sc23)c1)C(F)(F)F (single isomer, unassigned) [Example 70 Peak #2]
